Where two headings read alike, the source gives them in different places.
Experiments:
Assay in all cases: Kinase binding screen
Settings in all cases: read-out: Percent Control at 100 nM Compound Concentration
[1] = biological target: ABL1(H396P)-nonphosphorylated (Homo sapiens (Human), UniProt P00519, H396P)
[2] = biological target: RSK4(Kin.Dom.1-N-terminal) (Homo sapiens (Human), UniProt Q9UK32)
MAP4K3 = MAP4K3 (Homo sapiens (Human), UniProt Q8IVH8)
KIT(D816V) = KIT(D816V) (Homo sapiens (Human), UniProt P10721, D816V)
MYLK = MYLK (Homo sapiens (Human), UniProt Q15746)
FRK = FRK (Homo sapiens (Human), UniProt P42685)
CAMK1D = CAMK1D (Homo sapiens (Human), UniProt Q8IU85)
S6K1 = S6K1 (Homo sapiens (Human), UniProt P23443)
RIOK1 = RIOK1 (Homo sapiens (Human), UniProt Q9BRS2)
NIK = NIK (Homo sapiens (Human), UniProt Q99558)
FER = FER (Homo sapiens (Human), UniProt P16591)
VPS34 = VPS34 (Homo sapiens (Human), UniProt Q8NEB9)
DMPK2 = DMPK2 (Homo sapiens (Human), UniProt Q6DT37)
CDKL3 = CDKL3 (Homo sapiens (Human), UniProt Q8IVW4)
FLT3(K663Q) = FLT3(K663Q) (Homo sapiens (Human), UniProt P36888, K663Q)
HIPK4 = HIPK4 (Homo sapiens (Human), UniProt Q8NE63)
ROS1 = ROS1 (Homo sapiens (Human), UniProt P08922)
PAK4 = PAK4 (Homo sapiens (Human), UniProt O96013)
ERBB2 = ERBB2 (Homo sapiens (Human), UniProt P04626)
PIK3CA = PIK3CA (Homo sapiens (Human), UniProt P42336)
DAPK2 = DAPK2 (Homo sapiens (Human), UniProt Q9UIK4)
FLT3-autoinhibited = FLT3-autoinhibited (Homo sapiens (Human), UniProt P36888)
KIT-autoinhibited = KIT-autoinhibited (Homo sapiens (Human), UniProt P10721)
[3] = biological target: RPS6KA5(Kin.Dom.1-N-terminal) (Homo sapiens (Human), UniProt O75582)
NEK7 = NEK7 (Homo sapiens (Human), UniProt Q8TDX7)
EGFR(G719S) = EGFR(G719S) (Homo sapiens (Human), UniProt P00533, G719S)
EPHB2 = EPHB2 (Homo sapiens (Human), UniProt P29323)
VEGFR2 = VEGFR2 (Homo sapiens (Human), UniProt P35968)

Chain of ERBB2 (P04626 23-1255): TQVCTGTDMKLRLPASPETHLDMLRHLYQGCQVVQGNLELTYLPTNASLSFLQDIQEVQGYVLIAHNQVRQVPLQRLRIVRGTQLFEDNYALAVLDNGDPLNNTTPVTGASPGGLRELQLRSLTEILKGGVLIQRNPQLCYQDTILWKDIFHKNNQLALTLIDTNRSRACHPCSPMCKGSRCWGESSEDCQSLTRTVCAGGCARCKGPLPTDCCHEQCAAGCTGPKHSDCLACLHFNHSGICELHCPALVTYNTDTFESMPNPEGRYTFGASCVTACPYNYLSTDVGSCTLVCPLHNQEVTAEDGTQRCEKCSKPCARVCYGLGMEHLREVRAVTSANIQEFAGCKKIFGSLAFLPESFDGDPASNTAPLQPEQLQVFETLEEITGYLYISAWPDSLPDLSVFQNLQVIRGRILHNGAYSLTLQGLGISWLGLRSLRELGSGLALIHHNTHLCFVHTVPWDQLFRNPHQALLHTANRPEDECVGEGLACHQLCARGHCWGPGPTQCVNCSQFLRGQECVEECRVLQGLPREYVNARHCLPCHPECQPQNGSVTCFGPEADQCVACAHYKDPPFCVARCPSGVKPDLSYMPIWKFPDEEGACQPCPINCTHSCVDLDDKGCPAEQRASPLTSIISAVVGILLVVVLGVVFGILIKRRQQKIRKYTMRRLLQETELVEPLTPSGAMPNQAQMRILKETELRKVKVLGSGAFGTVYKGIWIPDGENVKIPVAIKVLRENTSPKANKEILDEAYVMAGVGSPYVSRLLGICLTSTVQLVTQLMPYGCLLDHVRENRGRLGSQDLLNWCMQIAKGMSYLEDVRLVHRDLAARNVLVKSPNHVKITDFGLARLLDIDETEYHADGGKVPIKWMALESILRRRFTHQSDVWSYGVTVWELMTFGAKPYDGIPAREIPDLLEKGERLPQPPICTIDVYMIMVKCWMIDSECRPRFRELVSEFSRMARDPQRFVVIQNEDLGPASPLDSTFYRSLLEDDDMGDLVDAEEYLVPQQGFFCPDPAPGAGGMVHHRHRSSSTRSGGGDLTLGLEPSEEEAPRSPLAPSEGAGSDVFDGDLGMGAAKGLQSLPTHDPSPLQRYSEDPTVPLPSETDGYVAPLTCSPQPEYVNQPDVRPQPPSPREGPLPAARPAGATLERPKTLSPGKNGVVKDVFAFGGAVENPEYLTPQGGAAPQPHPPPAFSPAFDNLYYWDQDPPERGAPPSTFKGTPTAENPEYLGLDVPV
Chain of EGFR(G719S) (P00533 25-1210 G719S): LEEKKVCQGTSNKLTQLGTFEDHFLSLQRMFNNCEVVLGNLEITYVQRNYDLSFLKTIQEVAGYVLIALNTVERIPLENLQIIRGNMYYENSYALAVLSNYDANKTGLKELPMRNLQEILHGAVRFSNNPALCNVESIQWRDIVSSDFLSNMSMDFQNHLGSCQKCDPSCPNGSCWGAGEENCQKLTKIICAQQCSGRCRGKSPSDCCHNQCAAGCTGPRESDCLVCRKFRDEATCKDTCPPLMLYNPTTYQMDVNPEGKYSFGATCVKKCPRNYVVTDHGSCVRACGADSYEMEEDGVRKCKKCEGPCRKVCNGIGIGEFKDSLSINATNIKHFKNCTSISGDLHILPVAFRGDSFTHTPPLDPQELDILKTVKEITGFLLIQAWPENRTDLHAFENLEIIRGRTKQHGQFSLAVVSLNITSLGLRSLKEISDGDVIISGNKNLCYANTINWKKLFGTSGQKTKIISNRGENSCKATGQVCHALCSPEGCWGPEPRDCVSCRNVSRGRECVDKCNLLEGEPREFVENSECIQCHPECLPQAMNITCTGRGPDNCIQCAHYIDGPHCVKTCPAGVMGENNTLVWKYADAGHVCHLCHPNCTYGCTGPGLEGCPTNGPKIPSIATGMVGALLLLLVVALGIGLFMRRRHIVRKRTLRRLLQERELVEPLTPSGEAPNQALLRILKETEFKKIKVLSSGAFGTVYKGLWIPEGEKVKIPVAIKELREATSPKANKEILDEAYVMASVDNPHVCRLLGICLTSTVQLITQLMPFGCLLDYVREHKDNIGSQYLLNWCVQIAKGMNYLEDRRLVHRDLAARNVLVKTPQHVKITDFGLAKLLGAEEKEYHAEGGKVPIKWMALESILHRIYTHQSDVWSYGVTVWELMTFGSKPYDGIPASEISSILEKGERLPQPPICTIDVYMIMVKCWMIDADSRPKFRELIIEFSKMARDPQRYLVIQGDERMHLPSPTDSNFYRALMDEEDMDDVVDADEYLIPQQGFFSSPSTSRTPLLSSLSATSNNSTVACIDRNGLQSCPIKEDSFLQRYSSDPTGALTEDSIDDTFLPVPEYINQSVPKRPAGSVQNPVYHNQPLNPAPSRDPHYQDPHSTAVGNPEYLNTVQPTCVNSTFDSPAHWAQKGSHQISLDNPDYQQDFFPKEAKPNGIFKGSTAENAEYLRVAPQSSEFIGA
Chain of MYLK (Q15746 whole entry): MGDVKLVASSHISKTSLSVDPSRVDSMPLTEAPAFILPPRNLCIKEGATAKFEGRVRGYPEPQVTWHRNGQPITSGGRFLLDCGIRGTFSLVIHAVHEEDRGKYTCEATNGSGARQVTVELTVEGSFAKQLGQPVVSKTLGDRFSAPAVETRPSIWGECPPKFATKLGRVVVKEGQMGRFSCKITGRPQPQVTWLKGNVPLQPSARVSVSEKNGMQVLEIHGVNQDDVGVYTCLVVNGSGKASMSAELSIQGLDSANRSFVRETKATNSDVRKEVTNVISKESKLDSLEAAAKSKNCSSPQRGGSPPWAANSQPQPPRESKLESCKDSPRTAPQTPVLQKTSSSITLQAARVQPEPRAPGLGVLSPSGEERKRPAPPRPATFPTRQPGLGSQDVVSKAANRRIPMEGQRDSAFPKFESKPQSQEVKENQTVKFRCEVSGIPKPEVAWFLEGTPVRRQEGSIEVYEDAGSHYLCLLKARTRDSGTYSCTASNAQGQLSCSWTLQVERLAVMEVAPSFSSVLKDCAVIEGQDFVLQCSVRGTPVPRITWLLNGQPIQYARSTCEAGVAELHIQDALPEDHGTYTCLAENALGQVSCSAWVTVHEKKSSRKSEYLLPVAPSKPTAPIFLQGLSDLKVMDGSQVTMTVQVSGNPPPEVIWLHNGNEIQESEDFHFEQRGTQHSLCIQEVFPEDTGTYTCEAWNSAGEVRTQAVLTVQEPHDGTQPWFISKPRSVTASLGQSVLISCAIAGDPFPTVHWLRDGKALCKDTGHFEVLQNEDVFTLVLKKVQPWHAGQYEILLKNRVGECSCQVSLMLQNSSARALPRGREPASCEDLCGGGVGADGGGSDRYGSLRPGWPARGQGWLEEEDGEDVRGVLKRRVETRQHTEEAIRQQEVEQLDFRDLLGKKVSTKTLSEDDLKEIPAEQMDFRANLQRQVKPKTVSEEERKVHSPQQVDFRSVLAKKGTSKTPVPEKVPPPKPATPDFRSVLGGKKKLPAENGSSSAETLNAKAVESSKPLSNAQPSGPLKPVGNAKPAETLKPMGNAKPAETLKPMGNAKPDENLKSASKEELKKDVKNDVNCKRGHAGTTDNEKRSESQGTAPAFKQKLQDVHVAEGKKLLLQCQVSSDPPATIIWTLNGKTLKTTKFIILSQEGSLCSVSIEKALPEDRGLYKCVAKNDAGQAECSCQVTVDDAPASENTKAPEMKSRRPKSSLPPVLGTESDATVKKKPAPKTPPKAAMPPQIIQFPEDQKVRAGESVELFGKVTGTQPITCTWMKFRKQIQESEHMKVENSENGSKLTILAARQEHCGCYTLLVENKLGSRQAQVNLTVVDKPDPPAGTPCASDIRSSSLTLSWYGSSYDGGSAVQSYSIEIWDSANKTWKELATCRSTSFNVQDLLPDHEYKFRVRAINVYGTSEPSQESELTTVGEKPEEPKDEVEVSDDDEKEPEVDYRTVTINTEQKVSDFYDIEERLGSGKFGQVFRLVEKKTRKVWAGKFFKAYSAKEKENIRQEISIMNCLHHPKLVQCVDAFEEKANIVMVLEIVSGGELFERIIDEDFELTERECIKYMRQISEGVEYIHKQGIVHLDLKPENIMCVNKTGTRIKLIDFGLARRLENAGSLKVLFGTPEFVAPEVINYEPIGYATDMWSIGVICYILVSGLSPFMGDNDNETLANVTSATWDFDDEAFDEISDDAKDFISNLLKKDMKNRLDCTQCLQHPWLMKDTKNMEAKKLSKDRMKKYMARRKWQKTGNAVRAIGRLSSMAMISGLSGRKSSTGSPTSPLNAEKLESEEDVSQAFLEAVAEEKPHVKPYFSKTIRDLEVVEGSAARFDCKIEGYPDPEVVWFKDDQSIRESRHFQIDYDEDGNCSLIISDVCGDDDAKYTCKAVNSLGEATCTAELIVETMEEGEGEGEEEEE
Chain of CAMK1D (Q8IU85 whole entry): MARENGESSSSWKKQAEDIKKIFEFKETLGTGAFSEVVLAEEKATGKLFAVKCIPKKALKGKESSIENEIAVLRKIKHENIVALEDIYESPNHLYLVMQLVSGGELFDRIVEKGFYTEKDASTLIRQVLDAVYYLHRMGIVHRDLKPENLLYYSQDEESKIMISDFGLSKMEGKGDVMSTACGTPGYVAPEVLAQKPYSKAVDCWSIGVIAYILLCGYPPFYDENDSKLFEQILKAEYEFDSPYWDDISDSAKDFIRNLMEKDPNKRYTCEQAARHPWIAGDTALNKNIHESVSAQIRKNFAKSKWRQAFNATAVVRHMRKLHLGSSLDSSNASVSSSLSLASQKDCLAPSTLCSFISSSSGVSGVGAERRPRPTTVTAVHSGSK
Chain of DAPK2 (Q9UIK4 whole entry): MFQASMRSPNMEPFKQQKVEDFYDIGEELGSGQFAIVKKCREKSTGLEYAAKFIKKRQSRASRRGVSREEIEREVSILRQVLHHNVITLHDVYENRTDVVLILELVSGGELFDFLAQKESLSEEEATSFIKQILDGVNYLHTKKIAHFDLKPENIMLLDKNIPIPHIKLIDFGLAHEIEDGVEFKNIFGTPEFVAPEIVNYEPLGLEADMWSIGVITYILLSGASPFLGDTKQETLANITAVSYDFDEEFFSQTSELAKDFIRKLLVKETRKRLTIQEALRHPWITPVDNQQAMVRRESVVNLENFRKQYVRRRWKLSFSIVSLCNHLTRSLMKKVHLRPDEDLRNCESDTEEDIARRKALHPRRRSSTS

CN(C[C@@H](O)Cc1ccccc1)C(=O)c1cncc(C#Cc2cnn(C(F)F)c2)c1 [Example 2, (S)-5-((1-(difluoromethyl)-1H-pyrazol-4-yl)ethynyl)-N-(2-hydroxy-3-phenylpropyl)-N-methylnicotinamide]
remaining activity at 0.1 µM ([1]; ABL1(H396P)-nonphosphorylated): 88%
remaining activity at 0.1 µM ([2]; RSK4(Kin.Dom.1-N-terminal)): 100%
remaining activity at 0.1 µM (MAP4K3; MAP4K3): 100%
remaining activity at 0.1 µM (KIT(D816V); KIT(D816V)): 100%
remaining activity at 0.1 µM (MYLK; MYLK): 87%
remaining activity at 0.1 µM (FRK; FRK): 100%
remaining activity at 0.1 µM (CAMK1D; CAMK1D): 100%
remaining activity at 0.1 µM (S6K1; S6K1): 95%
remaining activity at 0.1 µM (RIOK1; RIOK1): 100%
remaining activity at 0.1 µM (NIK; NIK): 84%
remaining activity at 0.1 µM (FER; FER): 100%
remaining activity at 0.1 µM (VPS34; VPS34): 87%
remaining activity at 0.1 µM (DMPK2; DMPK2): 97%
remaining activity at 0.1 µM (CDKL3; CDKL3): 100%
remaining activity at 0.1 µM (FLT3(K663Q); FLT3(K663Q)): 100%
remaining activity at 0.1 µM (HIPK4; HIPK4): 100%
remaining activity at 0.1 µM (ROS1; ROS1): 100%
remaining activity at 0.1 µM (PAK4; PAK4): 98%
remaining activity at 0.1 µM (ERBB2; ERBB2): 70%
remaining activity at 0.1 µM (PIK3CA; PIK3CA): 100%
remaining activity at 0.1 µM (DAPK2; DAPK2): 100%
remaining activity at 0.1 µM (FLT3-autoinhibited; FLT3-autoinhibited): 95%
remaining activity at 0.1 µM (KIT-autoinhibited; KIT-autoinhibited): 94%
remaining activity at 0.1 µM ([3]; RPS6KA5(Kin.Dom.1-N-terminal)): 91%
remaining activity at 0.1 µM (NEK7; NEK7): 100%
remaining activity at 0.1 µM (EGFR(G719S); EGFR(G719S)): 100%
remaining activity at 0.1 µM (EPHB2; EPHB2): 100%
remaining activity at 0.1 µM (VEGFR2; VEGFR2): 96%

CN(C[C@H](Cc1ccccc1)OP(=O)(O)O)C(=O)c1cncc(C#Cc2cnn(C(F)F)c2)c1 [Example 19, (S)-1-(5-((1-(difluoromethyl)-1H-pyrazol-4-yl)ethynyl)-N-methylnicotinamido)-3-phenylpropan-2-yl dihydrogen phosphate]
remaining activity at 0.1 µM [1]: 96%
remaining activity at 0.1 µM [2]: 93%
remaining activity at 0.1 µM (MAP4K3): 100%
remaining activity at 0.1 µM (KIT(D816V)): 100%
remaining activity at 0.1 µM (MYLK): 86%
remaining activity at 0.1 µM (FRK): 100%
remaining activity at 0.1 µM (CAMK1D): 74%
remaining activity at 0.1 µM (S6K1): 95%
remaining activity at 0.1 µM (RIOK1): 100%
remaining activity at 0.1 µM (NIK): 88%
remaining activity at 0.1 µM (FER): 96%
remaining activity at 0.1 µM (VPS34): 90%
remaining activity at 0.1 µM (DMPK2): 96%
remaining activity at 0.1 µM (CDKL3): 97%
remaining activity at 0.1 µM (FLT3(K663Q)): 100%
remaining activity at 0.1 µM (HIPK4): 100%
remaining activity at 0.1 µM (ROS1): 91%
remaining activity at 0.1 µM (PAK4): 98%
remaining activity at 0.1 µM (ERBB2): 65%
remaining activity at 0.1 µM (PIK3CA): 100%
remaining activity at 0.1 µM (DAPK2): 90%
remaining activity at 0.1 µM (FLT3-autoinhibited): 96%
remaining activity at 0.1 µM (KIT-autoinhibited): 94%
remaining activity at 0.1 µM [3]: 100%
remaining activity at 0.1 µM (NEK7): 99%
remaining activity at 0.1 µM (EGFR(G719S)): 72%
remaining activity at 0.1 µM (EPHB2): 100%
remaining activity at 0.1 µM (VEGFR2): 97%

— patent publication US11767310B2, “Nicotinamide RIPK1 inhibitors” (AbbVie Inc., priority 2021, dated 2023)
